Assays:
Conditions in all cases: 48 h
CU-ACC1 [1] = assay: area under concentration-response curve (viability) (AUC (a.u.)); higher = less active
Method in brief: (§1)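 Three adrenocortical carcinoma cell lines in 1,536-well plates received 23 nL of each library compound at 11 concentrations and were read with CellTiter-Glo after 48 h, with 15 minutes at room temperature before measuring luminescence. Vehicle and empty-well controls served for per-plate normalisation. AC50 and area under the curve were extracted from fitted concentration-response curves, discarding all curve classes other than inhibitory or non-responding.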

NCI-H295R [2] = assay: as above
Method in brief: as §1

CU-ACC2 [3] = assay: as above
Method in brief: as §1

CU-ACC1 [4] = assay: AC50 viability; higher = less potent
Method in brief: as §1

NCI-H295R [5] = assay: AC50 viability; higher = less potent
Method in brief: as §1

CU-ACC2 [6] = assay: AC50 viability; higher = less potent
Method in brief: as §1

Structure (SMILES) | area under concentration-response curve (CU-ACC1 [1]) | area under concentration-response curve (NCI-H295R [2]) | area under concentration-response curve (CU-ACC2 [3]) | AC50 viability (CU-ACC1 [4]) | AC50 viability (NCI-H295R [5]) | AC50 viability (CU-ACC2 [6])
O=C(NO)c1cnc(N2C[C@H]3C[C@@H]2CN3c2cc(C(F)(F)F)ccn2)nc1 | 385 | 488 | 538 | 7.42 µM | 1.66 µM | 10.5 µM
CC(=O)[C@]1(O)Cc2c(O)c3c(c(O)c2[C@@H](O[C@H]2C[C@H](N)[C@H](O)[C@H](C)O2)C1)C(=O)c1ccccc1C3=O | 428 | 377 | 485 | 20.9 µM | 14.8 µM | 20.9 µM
C[C@@]12O[C@@H](C[C@]1(O)CO)n1c3ccccc3c3c4c(c5c6ccccc6n2c5c31)CNC4=O | 380 | 407 | 346 | 6.61 µM | 14.8 µM | 9.34 µM
CC(C)(Cc1ccc2ccccc2c1)NC[C@@H](O)COc1cccc(Cl)c1C#N | 460 | 480 | 530 | 9.34 µM | 9.34 µM | 7.42 µM
N[C@@H](Cc1ccc(N(CCCl)CCCl)cc1)C(=O)O | 267 | 385 | 303 | 10.5 µM | 9.34 µM | 9.34 µM
CC(C)c1ccc(Cn2ccc3c4c(N)nc(NC5CC5)nc4ccc32)cc1 | 327 | 335 | 399 | 7.42 µM | 2.95 µM | 2.95 µM
Cc1nc(Nc2ncc(C(=O)Nc3c(C)cccc3Cl)s2)cc(N2CCN(CCO)CC2)n1 | 448 | 446 | 461 | 29.5 µM | 23.5 µM | 23.5 µM
CC1(C)CC(=O)c2c(C(F)(F)F)nn(-c3ccc(C(N)=O)c(NC4CCC(OC(=O)CN)CC4)c3)c2C1 (centres undefined) | 362 | 431 | 426 | 1.05 µM | 1.05 µM | 0.417 µM
Cc1ccc([S+](=O)([O-])Nc2cc(Cl)ccc2C(=O)Nc2nc(-c3ccccc3)cs2)cc1 | 362 | 340 | 306 | 9.34 µM | 2.63 µM | 0.263 µM
CN(Cc1ccc(/C=C/C(=O)NO)cc1)CC12CC3CC(CC(C3)C1)C2 | 303 | 365 | 408 | 1.05 µM | 1.66 µM | 1.05 µM
CN1CC[C@H]([C@@H](O)C1)C2=C(O)C=C(O)C3=C2O\C(=C/C3=O)C4=CC=CC=C4Cl | 346 | 352 | 392 | 0.833 µM | 1.32 µM | 0.417 µM
Cn1cc(-c2cnn3c(N)c(Br)c([C@@H]4CCCNC4)nc23)cn1 | 483 | 471 | 568 | 20.9 µM | 18.6 µM | 20.9 µM
CC1=C2N=C([NH]C2=CC(=C1)N3CCOCC3)\C4=C(NC[C@@H](O)C5=CC=CC(=C5)Cl)\C=C/NC4=O | 342 | 303 | 277 | 0.00331 µM | 0.468 µM | 0.833 µM
C[C@@H](Oc1cc(-n2cnc3ccc(CN4CCN(C)CC4)cc32)sc1C(N)=O)c1ccccc1C(F)(F)F | 471 | 446 | 540 | 11.8 µM | 11.8 µM | 16.6 µM
